Assay results taken from PMC7806714, “Statins for the prevention of proliferative vitreoretinopathy: cellular responses in cultured cells and clinical statin concentrations in the vitreous” (Scientific Reports, 2021).

Experiments:
MTT cell viability assay = type: cell-based, human; details: human, ARPE-19 cells; dissolved in DMSO; read-out: Cell viability (MTT) compared to DMSO control
Protocol: (§1) Cell viability was assessed by determining the amount of LDH enzyme from culture media using a commercial kit (Promega Corporation, USA) according to the manufacturer’s protocol. This assay provides information about the integrity of the plasma membranes of the cells (high LDH levels meaning cell damage). In addition, the cell viability was examined with MTT assay, as described previously. In viable cells, the mitochondrial succinate dehydrogenase enzyme can metabolize the MTT dye into formazan that absorbs light at the 550 nm wavelength.

ARPE-19 cells = assay: MTT cell viability assay; type: cell-based, human
Protocol: as §1

CC(C)c1nc(N(C)S(C)(=O)=O)nc(-c2ccc(F)cc2)c1/C=C/[C@@H](O)C[C@@H](O)CC(=O)O [Rosuvastatin]
viability (MTT cell viability assay): 88%
Cellular toxicity in MTT test (ARPE-19 cells; dissolved in DMSO, 24 h or 48 h, with or without LPS): well tolerated
Cell viability in MTT assay (ARPE-19 cells; dissolved in water): did not compromise cell viability
